According to the supplement of paper PMC10331698:
± gives the standard deviation of the averaged measurements.

Legend:
Assay in all cases: level (log10 ratio to DMSO vehicle control); higher = higher biomarker level / cell amount than vehicle control
Conditions in all cases: in DMSO
[1] = compound: FC(F)(F)C(F)(F)C(F)(F)CC1CO1 [1H,1H-Heptafluorobutyl epoxide]
Experimental: (§1)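 BioMAP Diversity Plus panel of 12 human primary cell co-culture systems (3C, 4H, LPS, SAg, BT, BF4T, BE3C, CASM3C, HDF3CGF, KF3CT, MyoF, Mphg). Compounds were added 1 h before stimulation and left for 24 h (MyoF 48 h; BT 72 h for soluble read-outs or 6 d for IgG). Biomarkers were read by ELISA, cytotoxicity by SRB, PBMC viability and proliferation by Alamar Blue. Each well value was divided by the mean of 8 DMSO control wells on the same plate and log10 transformed; duplicate blinded samples were tested at 4 concentrations.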

[2] = compound: O=S(=O)(O)CCC(F)(F)C(F)(F)C(F)(F)C(F)(F)C(F)(F)C(F)(F)F [6:2 Fluorotelomer sulfonic acid]
Experimental: as §1

[3] = compound: O=S(=O)(O)C(F)(F)C(F)(F)C(F)(F)C(F)(F)C(F)(F)C(F)(F)C(F)(F)C(F)(F)C(F)(F)C(F)(F)F [Sodium perfluorodecanesulfonate]
Experimental: as §1

Octafluoroadipamide = compound: NC(=O)C(F)(F)C(F)(F)C(F)(F)C(F)(F)C(N)=O [Octafluoroadipamide]
Experimental: as §1

Hexafluoroamylene glycol = compound: OCC(F)(F)C(F)(F)C(F)(F)CO [Hexafluoroamylene glycol]
Experimental: as §1

[4] = compound: O=S(=O)(Cl)C(F)(F)C(F)(F)C(F)(F)C(F)(F)C(F)(F)C(F)(F)C(F)(F)C(F)(F)F [Perfluoro-1-octanesulfonyl chloride]
Experimental: as §1

| Test System | level (log10) ([1]; 6700 nM) | level (log10) ([1]; 20000 nM) | level (log10) ([1]; 60000 nM) | level (log10) ([2]; 6700 nM) | level (log10) ([2]; 20000 nM) | level (log10) ([2]; 60000 nM) | level (log10) ([3]; 1500 nM) | level (log10) ([3]; 4400 nM) | level (log10) ([3]; 13000 nM) | level (log10) ([3]; 40000 nM) | level (log10) (Octafluoroadipamide; 6700 nM) | level (log10) (Octafluoroadipamide; 20000 nM) | level (log10) (Octafluoroadipamide; 60000 nM) | level (log10) (Hexafluoroamylene glycol; 6700 nM) | level (log10) (Hexafluoroamylene glycol; 20000 nM) | level (log10) (Hexafluoroamylene glycol; 60000 nM) | level (log10) ([4]; 6700 nM) | level (log10) ([4]; 20000 nM) | level (log10) ([4]; 60000 nM) |
| --- | --- | --- | --- | --- | --- | --- | --- | --- | --- | --- | --- | --- | --- | --- | --- | --- | --- | --- | --- |
| MyoF:CD106/VCAM-1 | -0.007 ± 0.013 | -0.007 ± 0.038 | -0.0205 ± 0.03 | -0.003 ± 0.0028 | -0.012 ± 0.0099 | -0.0095 ± 0.005 | 0.0005 ± 0.013 | -0.0005 ± 0.013 | -0.01 ± 0.0014 | -0.035 ± 0.0085 | -0.006 ± 0.021 | 0.026 ± 0.0057 | 0.002 ± 0.0014 | -0.0015 ± 0.0092 | -0.022 ± 0.02 | -0.0045 ± 0.015 | -0.0025 ± 0.0064 | 0.0025 ± 0.025 | -0.0195 ± 0.0092 |
| MyoF:CXCL8/IL-8 | -0.012 ± 0.0028 | 0.006 ± 0.0099 | -0.021 ± 0.0042 | 0.007 ± 0.031 | 0 ± 0.018 | 0.016 ± 0.021 | -0.04 ± 0.0071 | -0.039 ± 0.0071 | -0.021 ± 0.023 | 0.02 ± 0.044 | 0.007 ± 0.028 | -0.006 ± 0.011 | 0.0075 ± 0.016 | -0.0385 ± 0.028 | -0.0325 ± 0.018 | 0.001 ± 0.075 | -0.005 ± 0.016 | 0.0115 ± 0.005 | 0.138 ± 0.0042 |
| MyoF:Collagen I | 0.013 ± 0.018 | -0.0025 ± 0.00071 | -0.0105 ± 0.012 | 0.011 ± 0.025 | -0.022 ± 0.016 | 0 ± 0.0085 | -0.003 ± 0.02 | -0.006 ± 0.0028 | -0.003 ± 0.0057 | -0.0415 ± 0.00071 | -0.0015 ± 0.015 | 0.009 ± 0.0071 | 0.0135 ± 0.0021 | 0.012 ± 0.0028 | -0.0045 ± 0.016 | 0.019 ± 0.017 | -0.009 | -0.0185 ± 0.00071 | -0.0665 ± 0.00071 |
| MyoF:Collagen III | -0.007 ± 0.011 | -0.012 ± 0.011 | -0.012 ± 0.0042 | -0.011 ± 0.013 | -0.02 ± 0.017 | -0.0055 ± 0.015 | 0.0125 ± 0.037 | 0.02 ± 0.0057 | -0.0005 ± 0.0035 | -0.0455 ± 0.0021 | 0.0035 ± 0.011 | 0.009 ± 0.0057 | -0.0075 ± 0.025 | -0.007 ± 0.017 | -0.005 ± 0.018 | 0.005 ± 0.017 | -0.0155 ± 0.0035 | -0.0315 ± 0.00071 | -0.164 ± 0.035 |
